Experimental findings from PubChem BioAssay (NCI) are described below.

Some test systems named below: MDA-MB-231 breast; HS 578T breast; NCI-H23 lung; HCT-116 colon; SF-295 CNS; DU-145 prostate; T-47D breast; OVCAR-5 ovarian.
What all share (assay): growth of human tumour cells (NCI), 48 h

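Five concentrations, 48 hours, 96-well plates. GI50 marks 50% less growth. Definition used: TGI = concentration required for complete inhibition of growth.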

Turning to `Cc1ccc(N=Nc2c(O)ccc3n[nH]nc23)cc1`, the GI50 is 13 µM with MDA-MB-231 breast; 10.9 µM in the test with HS 578T breast; 5.65 µM with NCI-H23 lung; 12.5 µM in the test with HCT-116 colon; 11.3 µM with SF-295 CNS; 16.1 µM with DU-145 prostate. Besides, the GI50 in the test with T-47D breast is 10.2 µM; with OVCAR-5 ovarian it was 43.5 µM. The TGI is over 100 µM with MDA-MB-231 breast; 58.4 µM with HS 578T breast; 38.3 µM with NCI-H23 lung; over 100 µM with HCT-116 colon; 38 µM with SF-295 CNS; 44.9 µM in the test with DU-145 prostate. Further, the TGI was 57.7 µM with T-47D breast and over 100 µM in the test on OVCAR-5 ovarian.
Consider `C[C@H]1COCCN1c1nc(-c2cnc(N)cc2C(F)F)nc(N2CCOCC2)n1`, for which the GI50 in the test with MDA-MB-231 breast was 0.177 µM; in the test with HS 578T breast, 0.1 µM; in the test with NCI-H23 lung, 0.274 µM; in the test with HCT-116 colon, 0.233 µM; with SF-295 CNS, 0.119 µM; in the test with DU-145 prostate, 0.285 µM. Also, the GI50 in the test on T-47D breast was 0.0269 µM; with OVCAR-5 ovarian, 0.188 µM. Also, the TGI in the test with MDA-MB-231 breast was 48.5 µM; in the test on HS 578T breast, 0.551 µM; with NCI-H23 lung, over 100 µM; with HCT-116 colon, over 100 µM; with SF-295 CNS, 0.645 µM; in the test with DU-145 prostate, over 100 µM. Also, the TGI in the test on T-47D breast is 0.181 µM; in the test with OVCAR-5 ovarian, over 100 µM.
With `CCC[n+]1cc2cc3c(cc2c2c1-c1cc4c(cc1C2)OCO4)OCO3` (tested in a mixture with another compound), the GI50 is 2.39 µM in the test on MDA-MB-231 breast; 0.437 µM in the test with HS 578T breast; 0.679 µM in the test with NCI-H23 lung; 0.758 µM in the test on HCT-116 colon; 0.47 µM in the test on SF-295 CNS; 1.27 µM in the test with DU-145 prostate. The results for the GI50 in the test with T-47D breast and in the test with OVCAR-5 ovarian were 0.267 µM and 8.85 µM, respectively. The TGI in the test with MDA-MB-231 breast is 12.1 µM; in the test on HS 578T breast, 3.53 µM; in the test on NCI-H23 lung, 3.02 µM; with HCT-116 colon, 11.3 µM; with SF-295 CNS, 6.37 µM; with DU-145 prostate it was 7.73 µM. Further, the TGI in the test on T-47D breast is 1.61 µM; with OVCAR-5 ovarian, 29 µM.
For `CCN(CC)S(=O)(=O)c1cccc(-c2ccc3c(NC(=O)C4CC4)n[nH]c3c2)c1`, the GI50 in the test with MDA-MB-231 breast is 2.84 µM; in the test on HS 578T breast it was 1.83 µM; in the test on NCI-H23 lung, 1.86 µM; in the test on HCT-116 colon it was 1.92 µM; in the test with SF-295 CNS it was 1.66 µM; in the test with DU-145 prostate, 2.26 µM. Further, the GI50 in the test on T-47D breast is 1.05 µM; with OVCAR-5 ovarian, 5.69 µM. Also, the TGI in the test on MDA-MB-231 breast, in the test on HS 578T breast, in the test with NCI-H23 lung, in the test on HCT-116 colon, in the test on SF-295 CNS and in the test on DU-145 prostate was over 6.25 µM throughout. Also, the TGI with T-47D breast and with OVCAR-5 ovarian was over 6.25 µM each time.
As to `COC(=O)c1ccc(NC(=O)c2ccc(NC3=C(Cl)C(=O)N(Cc4ccccc4)C3=O)cc2)cc1`, the GI50 in the test with MDA-MB-231 breast was 19.7 µM; in the test with HS 578T breast it was 35.9 µM; in the test on NCI-H23 lung it was 12.1 µM; with HCT-116 colon, 3.47 µM; with SF-295 CNS, 10.2 µM; in the test on DU-145 prostate it was 17.4 µM. Further, the GI50 is 74.1 µM with T-47D breast and 21.5 µM with OVCAR-5 ovarian. The TGI was 34.7 µM with MDA-MB-231 breast; over 100 µM in the test with HS 578T breast; 24.4 µM with NCI-H23 lung; 11.8 µM with HCT-116 colon; 22 µM in the test on SF-295 CNS; 31.2 µM in the test with DU-145 prostate. Also, the values for the TGI in the test with T-47D breast and in the test on OVCAR-5 ovarian were over 100 µM and 39 µM, respectively.
Turning to `CN(C)c1cc2c(Nc3ccc4c(cnn4Cc4ccccc4)c3)ncnc2cn1`, the GI50 was 6.1 µM in the test on MDA-MB-231 breast; 16.6 µM in the test with HS 578T breast; 9.52 µM in the test with NCI-H23 lung; 9.23 µM in the test on HCT-116 colon; 7.58 µM in the test on SF-295 CNS; 5.54 µM in the test with DU-145 prostate. Also, the GI50 is 3.38 µM in the test with T-47D breast and 9.2 µM in the test on OVCAR-5 ovarian. Moreover, the TGI with MDA-MB-231 breast is over 25 µM; in the test with HS 578T breast, over 25 µM; in the test with NCI-H23 lung, over 25 µM; in the test on HCT-116 colon it was over 25 µM; in the test with SF-295 CNS, over 23.1 µM; with DU-145 prostate, over 25 µM. Moreover, the TGI was over 20.5 µM in the test with T-47D breast and over 25 µM in the test on OVCAR-5 ovarian.
Turning to `Cc1ccnc2c(NC(C)CCCN)cc(O)c(O)c12` (configuration not stated), the GI50 in the test with MDA-MB-231 breast is 16 µM; with HS 578T breast, 6.26 µM; in the test on NCI-H23 lung, 3.98 µM; with HCT-116 colon, 13.8 µM; in the test with SF-295 CNS, 35.2 µM; in the test with DU-145 prostate, 11.2 µM. Further, the GI50 with T-47D breast was 11.6 µM; in the test on OVCAR-5 ovarian, 13.1 µM. Further, the TGI in the test with MDA-MB-231 breast is 74 µM; in the test on HS 578T breast, 43.1 µM; with NCI-H23 lung, 27.3 µM; in the test with HCT-116 colon, over 100 µM; in the test with SF-295 CNS, over 100 µM; in the test with DU-145 prostate, 24.2 µM. Besides, the TGI in the test on T-47D breast is 43.7 µM; in the test on OVCAR-5 ovarian, 40.7 µM.
